Data: the NIST ThermoML archive (doi:10.1021/acs.jced.5b00075)
± gives the expanded uncertainty stated by the source.

Assays:
[1] = Crystal; DTA
[2] = molar heat capacity at constant pressure; details: 101.33 kPa, Small sample (50 mg) DSC
[3] = Molar enthalpy of transition or fusion; details: Crystal; DSC

C(=C\c1ccccc1)/CN1CCN(C(c2ccccc2)c2ccccc2)CC1 [cinnarizine]
Normal melting temperature [1]: 120.83 ± 0.5 °C | molar heat capacity at constant pressure ([2]; 305 K, Crystal): 307.19 ± 37 J/K/mol | molar heat capacity at constant pressure ([2]; 310 K, Crystal): 314.6 ± 37 J/K/mol | molar heat capacity at constant pressure ([2]; 315 K, Crystal): 322.02 ± 37 J/K/mol | molar heat capacity at constant pressure ([2]; 320 K, Crystal): 329.43 ± 37 J/K/mol | molar heat capacity at constant pressure ([2]; 325 K, Crystal): 336.84 ± 38 J/K/mol | molar heat capacity at constant pressure ([2]; 330 K, Crystal): 344.26 ± 38 J/K/mol | molar heat capacity at constant pressure ([2]; 335 K, Crystal): 351.67 ± 38 J/K/mol | molar heat capacity at constant pressure ([2]; 340 K, Crystal): 359.09 ± 38 J/K/mol | molar heat capacity at constant pressure ([2]; 345 K, Crystal): 366.5 ± 38 J/K/mol | molar heat capacity at constant pressure ([2]; 350 K, Crystal): 373.91 ± 38 J/K/mol | molar heat capacity at constant pressure ([2]; 355 K, Crystal): 381.33 ± 38 J/K/mol | molar heat capacity at constant pressure ([2]; 360 K, Crystal): 388.74 ± 38 J/K/mol | molar heat capacity at constant pressure ([2]; 365 K, Crystal): 396.15 ± 38 J/K/mol | molar heat capacity at constant pressure ([2]; 370 K, Crystal): 403.57 ± 38 J/K/mol | molar heat capacity at constant pressure ([2]; 375 K, Crystal): 410.98 ± 38 J/K/mol | molar heat capacity at constant pressure ([2]; 380 K, Crystal): 418.4 ± 38 J/K/mol | molar heat capacity at constant pressure ([2]; 385 K, Crystal): 425.81 ± 38 J/K/mol | molar heat capacity at constant pressure ([2]; 400 K, Liquid): 558.85 ± 35 J/K/mol | molar heat capacity at constant pressure ([2]; 405 K, Liquid): 563.97 ± 36 J/K/mol | molar heat capacity at constant pressure ([2]; 410 K, Liquid): 569.09 ± 36 J/K/mol | molar heat capacity at constant pressure ([2]; 415 K, Liquid): 574.21 ± 36 J/K/mol | Molar enthalpy of transition or fusion [3]: 8.87 ± 1.03 kcal/mol
